This is an account of results in ChEMBL document CHEMBL5465560, “Selectivity Literature for EUbOPEN Chemogenomic Library” (2024).

For test [1], the target named is Calcium/calmodulin-dependent protein kinase type II subunit delta (Homo sapiens) (UniProt Q13557). In words: Selectivity interaction (Kinase panel (Z-LYTE Assay)) EUB0001632a CAMK2D. To be noted: at 10 µM.
Test [2] concerns the target T1, Dual specificity mitogen-activated protein kinase kinase 5 (Homo sapiens) (UniProt Q13163).
T1 sequence (whole entry): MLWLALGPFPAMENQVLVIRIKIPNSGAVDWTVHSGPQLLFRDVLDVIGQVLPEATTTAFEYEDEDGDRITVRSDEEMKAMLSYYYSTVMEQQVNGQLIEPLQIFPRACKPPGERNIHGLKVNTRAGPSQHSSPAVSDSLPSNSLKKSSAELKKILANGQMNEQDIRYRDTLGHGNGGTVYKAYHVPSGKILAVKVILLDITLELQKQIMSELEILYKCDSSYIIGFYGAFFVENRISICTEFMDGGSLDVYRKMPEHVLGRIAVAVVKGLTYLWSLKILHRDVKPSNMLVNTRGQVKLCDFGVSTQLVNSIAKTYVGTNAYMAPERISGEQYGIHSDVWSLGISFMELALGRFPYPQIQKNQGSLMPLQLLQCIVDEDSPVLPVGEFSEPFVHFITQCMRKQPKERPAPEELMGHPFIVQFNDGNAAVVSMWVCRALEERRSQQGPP
In words: Selectivity interaction (Ambit KINOMEscan and KiNATiv profiling in Jurkat cells) EUB0000090b MAP2K5. The settings on record: at 1 µM. The format is cell-based.

In the next test the target is Activated CDC42 kinase 1 (Homo sapiens, UniProt Q07912). Briefly: Selectivity interaction (Ambit KINOMEscan and KiNATiv profiling in Jurkat cells) EUB0000090b TNK2. To be noted: at 1 µM. Type of test: cell-based.
Test [3] has as its target Vascular endothelial growth factor receptor 1 (Homo sapiens) (UniProt P17948). In words: Selectivity interaction (KinomeScan (DiscoverX)) EUB0000607a FLT1. To be noted: at 10 µM.
Test [4] deals with T2, cAMP-dependent protein kinase catalytic subunit PRKX (Homo sapiens) (UniProt P51817).
T2 sequence (whole entry): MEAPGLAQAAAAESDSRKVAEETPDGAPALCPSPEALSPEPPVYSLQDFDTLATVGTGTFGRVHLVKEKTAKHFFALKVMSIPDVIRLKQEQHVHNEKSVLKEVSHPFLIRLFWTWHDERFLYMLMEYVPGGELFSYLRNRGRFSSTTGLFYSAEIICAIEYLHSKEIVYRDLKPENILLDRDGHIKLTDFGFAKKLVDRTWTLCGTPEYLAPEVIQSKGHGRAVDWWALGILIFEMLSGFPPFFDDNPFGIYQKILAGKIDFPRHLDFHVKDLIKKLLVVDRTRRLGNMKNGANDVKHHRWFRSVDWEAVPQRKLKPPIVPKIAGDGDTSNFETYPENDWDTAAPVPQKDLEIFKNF
Briefly: Selectivity interaction (KinomeScan (DiscoverX)) EUB0000666a PRKX. To be noted: at 10 µM.

In test [5] the target is Dual specificity tyrosine-phosphorylation-regulated kinase 1A (Homo sapiens, UniProt Q13627). Briefly: Selectivity interaction (Kinase panel (DSF assay)) EUB0001558a DYRK1A. On the technique in general: DSF heats the sample and reads unfolding from a dye or from intrinsic fluorescence.
The target in test [6] is Tyrosine-protein kinase Lck (Homo sapiens, UniProt P06239). In words: Selectivity interaction (Radiometric kinase assay (using 10 uM ATP)) EUB0000601a LCK.
Tyrosine-protein kinase Lck, sequence (P06239 whole entry): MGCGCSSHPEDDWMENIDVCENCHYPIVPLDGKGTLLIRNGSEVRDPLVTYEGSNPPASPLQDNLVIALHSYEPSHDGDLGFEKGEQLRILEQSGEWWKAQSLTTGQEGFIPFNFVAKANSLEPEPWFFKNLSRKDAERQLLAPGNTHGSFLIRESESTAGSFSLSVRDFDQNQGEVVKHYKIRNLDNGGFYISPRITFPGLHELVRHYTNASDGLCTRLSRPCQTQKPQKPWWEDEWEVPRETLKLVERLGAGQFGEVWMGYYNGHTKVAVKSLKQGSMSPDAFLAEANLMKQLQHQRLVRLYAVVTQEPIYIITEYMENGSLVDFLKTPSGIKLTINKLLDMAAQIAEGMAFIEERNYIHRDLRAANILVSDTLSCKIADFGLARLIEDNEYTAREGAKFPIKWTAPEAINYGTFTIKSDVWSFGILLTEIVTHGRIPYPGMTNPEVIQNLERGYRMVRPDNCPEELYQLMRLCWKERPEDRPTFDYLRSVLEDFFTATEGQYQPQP
For test [7], the target named is Tyrosine-protein kinase receptor UFO (Homo sapiens) (UniProt P30530). In words: Selectivity interaction (KinomeScan (DiscoverX)) EUB0001619a AXL. To be noted: at 1 µM.
Test [8] concerns the target T3, Serine/threonine-protein kinase haspin (Homo sapiens) (UniProt Q8TF76).
T3 sequence (whole entry): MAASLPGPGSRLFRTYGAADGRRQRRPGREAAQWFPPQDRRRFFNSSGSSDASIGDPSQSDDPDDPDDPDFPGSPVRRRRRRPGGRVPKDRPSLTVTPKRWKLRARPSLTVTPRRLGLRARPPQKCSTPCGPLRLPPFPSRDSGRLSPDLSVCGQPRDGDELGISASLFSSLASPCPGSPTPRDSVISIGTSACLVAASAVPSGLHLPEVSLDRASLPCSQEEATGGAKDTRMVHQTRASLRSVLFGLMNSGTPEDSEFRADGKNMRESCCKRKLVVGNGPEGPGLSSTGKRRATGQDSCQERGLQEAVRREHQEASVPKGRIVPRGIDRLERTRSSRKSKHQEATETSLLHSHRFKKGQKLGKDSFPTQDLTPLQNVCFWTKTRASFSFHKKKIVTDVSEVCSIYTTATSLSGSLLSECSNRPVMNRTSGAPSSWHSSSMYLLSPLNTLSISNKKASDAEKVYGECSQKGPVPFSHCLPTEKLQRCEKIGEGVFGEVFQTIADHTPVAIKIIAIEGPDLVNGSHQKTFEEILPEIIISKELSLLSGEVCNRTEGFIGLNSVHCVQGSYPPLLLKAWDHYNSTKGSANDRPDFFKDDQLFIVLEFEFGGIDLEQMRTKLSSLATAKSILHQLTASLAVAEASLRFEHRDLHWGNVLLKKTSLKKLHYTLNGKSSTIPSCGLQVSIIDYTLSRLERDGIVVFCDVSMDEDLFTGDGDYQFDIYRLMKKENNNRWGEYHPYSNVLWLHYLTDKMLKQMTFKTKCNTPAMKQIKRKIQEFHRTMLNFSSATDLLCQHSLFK
In words: Selectivity interaction (Kinase panel (Invitrogen)) EUB0000639a GSG2. To be noted: at 200 nM.

Test [9] has as its target Cell division control protein 42 homolog (Homo sapiens) (UniProt P60953). Briefly: Selectivity interaction (Kinase panel (Invitrogen)) EUB0000639a CDC42. To be noted: at 200 nM.
In test [10] the target is Leucine-rich repeat serine/threonine-protein kinase 2 (Homo sapiens, UniProt Q5S007). In words: Selectivity interaction (Kinase panel (Invitrogen)) EUB0000639a LRRK2. The settings on record: at 200 nM.
In test [11] the target is Serine/threonine-protein kinase PLK1 (Homo sapiens, UniProt P53350). Briefly: Selectivity interaction (ActivX KiNativ screen (kinase selectivity in THP-1 cell lysates)) EUB0000639a PLK1. The format is subcellular. To be noted: lysate, at 1 µM.
Serine/threonine-protein kinase PLK1, sequence (P53350 whole entry): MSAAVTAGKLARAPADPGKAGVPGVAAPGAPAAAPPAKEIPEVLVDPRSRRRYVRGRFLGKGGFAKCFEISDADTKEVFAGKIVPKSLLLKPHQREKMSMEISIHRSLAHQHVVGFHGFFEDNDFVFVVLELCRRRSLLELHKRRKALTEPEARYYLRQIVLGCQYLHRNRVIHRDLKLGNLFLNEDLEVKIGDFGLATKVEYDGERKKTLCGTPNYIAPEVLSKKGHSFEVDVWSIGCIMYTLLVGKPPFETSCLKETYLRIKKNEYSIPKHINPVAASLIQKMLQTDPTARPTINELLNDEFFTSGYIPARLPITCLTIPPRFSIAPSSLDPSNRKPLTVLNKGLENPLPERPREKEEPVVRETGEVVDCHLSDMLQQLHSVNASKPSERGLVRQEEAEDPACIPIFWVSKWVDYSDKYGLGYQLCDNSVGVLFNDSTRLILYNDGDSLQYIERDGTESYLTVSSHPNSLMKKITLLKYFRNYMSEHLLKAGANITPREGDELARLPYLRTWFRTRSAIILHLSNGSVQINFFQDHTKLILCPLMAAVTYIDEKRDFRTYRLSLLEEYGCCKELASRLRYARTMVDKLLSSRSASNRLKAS
The target of test [12] is Protein-tyrosine kinase 2-beta (Homo sapiens) (UniProt Q14289). In words: Selectivity interaction (KinomeScan (DiscoverX)) EUB0001049a PTK2B. To be noted: at 1 µM.
Test [13] concerns the target Prostacyclin receptor (Homo sapiens) (UniProt P43119). In words: Selectivity interaction (Eurofins CEREP Diversity Profile (receptors and ion channels)) EUB0000279b PTGIR. To be noted: at 10 µM.
The target of test [14] is Calcium/calmodulin-dependent protein kinase kinase 1 (Homo sapiens) (UniProt Q8N5S9). Briefly: Selectivity interaction (KinomeScan (DiscoverX)) EUB0000618a CAMKK1. The settings on record: at 10 µM.
Test [15] addresses Tyrosine-protein kinase ABL1 (Homo sapiens, UniProt P00519). Briefly: Selectivity interaction (Kinase panel (enzymatic assay)) EUB0000595a ABL1.

The structures appear in SMILES notation.

Calcium/calmodulin-dependent protein kinase type II subunit delta (Homo sapiens), sequence (Q13557 whole entry): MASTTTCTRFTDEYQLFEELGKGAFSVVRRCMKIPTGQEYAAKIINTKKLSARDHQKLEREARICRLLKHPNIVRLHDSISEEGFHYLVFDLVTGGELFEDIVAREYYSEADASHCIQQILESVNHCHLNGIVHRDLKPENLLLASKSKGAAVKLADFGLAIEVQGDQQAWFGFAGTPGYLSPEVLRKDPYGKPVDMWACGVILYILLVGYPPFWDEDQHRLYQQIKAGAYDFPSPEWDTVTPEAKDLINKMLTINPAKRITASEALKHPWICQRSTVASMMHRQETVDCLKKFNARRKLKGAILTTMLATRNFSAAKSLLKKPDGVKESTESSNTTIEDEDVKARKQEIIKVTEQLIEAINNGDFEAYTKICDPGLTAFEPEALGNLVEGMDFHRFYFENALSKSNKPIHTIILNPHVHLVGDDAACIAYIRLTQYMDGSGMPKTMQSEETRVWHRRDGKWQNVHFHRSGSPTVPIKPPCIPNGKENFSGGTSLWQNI
Vascular endothelial growth factor receptor 1 (Homo sapiens), sequence (P17948 whole entry): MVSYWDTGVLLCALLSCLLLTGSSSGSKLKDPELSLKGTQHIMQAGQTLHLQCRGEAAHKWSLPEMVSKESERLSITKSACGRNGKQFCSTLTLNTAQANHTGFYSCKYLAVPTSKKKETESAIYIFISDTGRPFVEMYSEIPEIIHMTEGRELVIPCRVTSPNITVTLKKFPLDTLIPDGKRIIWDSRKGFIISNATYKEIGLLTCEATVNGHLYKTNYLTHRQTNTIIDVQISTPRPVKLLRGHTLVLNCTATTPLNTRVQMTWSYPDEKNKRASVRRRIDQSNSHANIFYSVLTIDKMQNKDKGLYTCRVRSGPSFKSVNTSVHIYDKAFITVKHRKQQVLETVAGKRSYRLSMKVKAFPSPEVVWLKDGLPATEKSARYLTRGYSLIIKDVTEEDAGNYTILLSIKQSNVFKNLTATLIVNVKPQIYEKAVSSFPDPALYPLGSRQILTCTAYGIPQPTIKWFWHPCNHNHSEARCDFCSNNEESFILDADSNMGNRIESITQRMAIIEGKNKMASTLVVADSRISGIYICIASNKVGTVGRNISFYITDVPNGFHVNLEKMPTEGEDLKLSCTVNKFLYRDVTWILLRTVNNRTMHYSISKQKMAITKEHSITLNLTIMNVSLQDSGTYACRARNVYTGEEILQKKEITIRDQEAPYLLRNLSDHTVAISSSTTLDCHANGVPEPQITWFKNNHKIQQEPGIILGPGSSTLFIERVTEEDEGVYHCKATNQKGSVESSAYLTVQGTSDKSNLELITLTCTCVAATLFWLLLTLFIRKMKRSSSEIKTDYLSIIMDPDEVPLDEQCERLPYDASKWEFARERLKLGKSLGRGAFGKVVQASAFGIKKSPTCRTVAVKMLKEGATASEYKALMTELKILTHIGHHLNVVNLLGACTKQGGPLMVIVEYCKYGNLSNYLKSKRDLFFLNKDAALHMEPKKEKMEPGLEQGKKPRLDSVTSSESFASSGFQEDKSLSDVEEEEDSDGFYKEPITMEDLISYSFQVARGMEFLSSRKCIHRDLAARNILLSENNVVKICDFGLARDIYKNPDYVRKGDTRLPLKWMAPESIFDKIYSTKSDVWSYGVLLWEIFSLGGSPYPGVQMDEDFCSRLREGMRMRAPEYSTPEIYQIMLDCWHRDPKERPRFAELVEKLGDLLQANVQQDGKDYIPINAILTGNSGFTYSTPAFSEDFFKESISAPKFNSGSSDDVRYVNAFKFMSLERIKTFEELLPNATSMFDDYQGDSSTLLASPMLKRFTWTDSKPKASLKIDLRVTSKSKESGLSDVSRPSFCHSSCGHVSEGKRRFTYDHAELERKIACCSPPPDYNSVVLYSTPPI
Prostacyclin receptor (Homo sapiens), sequence (P43119 whole entry): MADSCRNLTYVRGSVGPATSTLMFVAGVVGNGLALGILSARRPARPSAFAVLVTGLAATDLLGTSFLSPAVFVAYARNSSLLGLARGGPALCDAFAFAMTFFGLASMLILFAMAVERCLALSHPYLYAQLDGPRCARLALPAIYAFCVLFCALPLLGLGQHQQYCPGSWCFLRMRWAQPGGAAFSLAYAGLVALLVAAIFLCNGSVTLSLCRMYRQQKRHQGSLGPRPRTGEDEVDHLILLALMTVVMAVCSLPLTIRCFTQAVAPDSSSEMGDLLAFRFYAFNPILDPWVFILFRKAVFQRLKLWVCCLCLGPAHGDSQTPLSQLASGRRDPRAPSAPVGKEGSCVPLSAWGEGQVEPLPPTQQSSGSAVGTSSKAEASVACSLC
Tyrosine-protein kinase ABL1, sequence (P00519 whole entry): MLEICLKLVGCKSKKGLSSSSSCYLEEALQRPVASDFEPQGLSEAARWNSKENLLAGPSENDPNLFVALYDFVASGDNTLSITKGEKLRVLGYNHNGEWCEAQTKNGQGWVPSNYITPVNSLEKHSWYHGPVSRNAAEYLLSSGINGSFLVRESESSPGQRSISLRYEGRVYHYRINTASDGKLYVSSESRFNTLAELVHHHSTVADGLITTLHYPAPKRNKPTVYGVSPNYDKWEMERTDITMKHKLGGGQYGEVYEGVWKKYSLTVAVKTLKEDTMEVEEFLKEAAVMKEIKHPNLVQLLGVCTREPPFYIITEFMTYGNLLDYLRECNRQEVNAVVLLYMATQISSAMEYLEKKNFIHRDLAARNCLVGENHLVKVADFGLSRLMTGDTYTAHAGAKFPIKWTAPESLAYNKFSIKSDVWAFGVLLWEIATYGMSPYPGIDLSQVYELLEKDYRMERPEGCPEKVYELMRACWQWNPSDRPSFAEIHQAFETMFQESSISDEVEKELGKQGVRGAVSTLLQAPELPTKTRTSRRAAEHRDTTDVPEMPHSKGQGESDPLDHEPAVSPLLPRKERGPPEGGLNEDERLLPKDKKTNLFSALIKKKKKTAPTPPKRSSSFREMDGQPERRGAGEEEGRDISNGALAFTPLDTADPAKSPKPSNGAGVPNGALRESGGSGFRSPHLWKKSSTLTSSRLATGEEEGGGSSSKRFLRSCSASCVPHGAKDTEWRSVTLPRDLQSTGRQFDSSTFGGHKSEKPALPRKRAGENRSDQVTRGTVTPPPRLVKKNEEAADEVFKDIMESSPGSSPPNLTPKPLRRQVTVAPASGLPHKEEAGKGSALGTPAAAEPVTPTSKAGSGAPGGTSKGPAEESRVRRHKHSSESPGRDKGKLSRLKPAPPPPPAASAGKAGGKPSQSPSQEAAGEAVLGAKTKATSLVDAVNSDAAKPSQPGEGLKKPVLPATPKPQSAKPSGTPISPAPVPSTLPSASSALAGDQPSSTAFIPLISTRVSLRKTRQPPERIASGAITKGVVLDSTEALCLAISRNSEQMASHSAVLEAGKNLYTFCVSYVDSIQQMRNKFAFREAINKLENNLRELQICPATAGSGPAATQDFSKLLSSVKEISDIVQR
Cell division control protein 42 homolog (Homo sapiens), sequence (P60953 whole entry, looked up): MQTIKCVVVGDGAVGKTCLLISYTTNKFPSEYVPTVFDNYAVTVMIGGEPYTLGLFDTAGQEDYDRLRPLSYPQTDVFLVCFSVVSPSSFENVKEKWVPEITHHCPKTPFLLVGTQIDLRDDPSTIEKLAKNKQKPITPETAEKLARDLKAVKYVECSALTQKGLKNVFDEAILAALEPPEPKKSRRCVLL

Consider `Cn1cc(-n2cnc3c(NCc4nc5cc(Cl)c(Cl)cc5[nH]4)nc(N4CCOCC4)nc32)cn1`, for which the % of control in [1] was -1.23%.
`CN(C)C/C=C/C(=O)Nc1ccc(C(=O)N2CCCC(Nc3ncc(Cl)c(-c4c[nH]c5ccccc45)n3)C2)cc1` (stereo unspecified): the % of control amounted to 97% in test [2] and 99% on Activated CDC42 kinase 1.
For `CNC(=O)Nc1ccc(-c2nc(N3CC4CCC(C3)O4)c3cnn(C4CCC5(CC4)OCCO5)c3n2)cc1`, the % of control in test [3] worked out at 92%.
In the case of `O=C(NOC[C@H](O)CO)c1ccc(F)c(F)c1Nc1ccc(I)cc1F`, in test [4], the % of control amounted to 100%.
Consider `CC(C)(O)[C@H](F)CN1Cc2cc(NC(=O)c3cnn4cccnc34)c(N3CCOCC3)cc2C1=O`, for which the dTM in test [5] was determined as 0.2 K.
As usually defined, the IC50 is the midpoint of a concentration-inhibition curve. Low values mean higher potency, high ones lower potency. In [6], `CCc1cc(Nc2nccc(-c3c(-c4ccc(OC)c(C(=O)Nc5c(F)cccc5F)c4)nc4ccccn34)n2)c(OC)cc1N1CCC(N2CCN(S(C)(=O)=O)CC2)CC1` showed an IC50 of over 3 µM.
As for `N#Cc1cccc(-c2c[nH]c3ncnc(N4CCOCC4)c23)c1`, the % of control in test [7] was 99%.
For the compound `CC[C@@H]1[C@H](F)C(=O)N[C@@H]1COc1nccc2cc(C(N)=O)c(OC)cc12` [ZIMLOVISERTIB], the % of inhibition in [8] is 41.1%; in test [9] it was 10.2%; in test [10], 75.5%; in test [11], -2.8%.
Turning to `COc1cc(Nc2nc(C)cc(-c3cnn4nc(OC)ccc34)n2)cc(C(F)(F)F)c1`, the % of control in test [12] stood at 99%.
Regarding `CC(=O)c1cc(-c2ccccc2OCC2CC2)c2ncccn12`, the % of control in test [13] was 108%.
Regarding `O[C@H]1CC[C@H](Nc2ncc3nc(Nc4c(F)cc(F)cc4F)n([C@H]4CCOC4)c3n2)CC1`, the % of control in [14] was found to be 100%.
Turning to `COCC(=O)NC/C=C/c1ccc2ncnc(Nc3ccc(Oc4ccc(C)nc4)c(C)c3)c2c1` [CP-724714], the IC50 in test [15] was over 10 µM.
